Source: ChEMBL document CHEMBL4651402, “Screening of ~5500 FDA-approved drugs and clinical candidates for anti-SARS-CoV-2 activity” (2021)
Structures can show the parent of a compound that is named as a salt.

Test system: SARS-CoV-2
Test: microbe, parasite or virus in culture
Conditions: Severe acute respiratory syndrome coronavirus 2, Vero C1008, 48 h

| SMILES | IC50 | IC50 (read-out: pIC50 (converted)) |
| --- | --- | --- |
| O=C1CCCN1CC#CCN1CCCC1 [OXOTREMORINE] | > 20 µM | > 20 µM |
| C=CCOc1ccccc1OCC(O)CNC(C)C (stereo not given) [OXPRENOLOL] | > 20 µM | > 20 µM |
| O=C(O)CCCO [OXYBATE] | > 20 µM | > 20 µM |
| COc1ccc(C(=O)c2ccccc2)c(O)c1 [OXYBENZONE] | > 20 µM | > 20 µM |
| CCN(CC)CC#CCOC(=O)C(O)(c1ccccc1)C1CCCCC1 (stereo not given) [OXYBUTYNIN] | > 20 µM | > 20 µM |
| O=C(O)c1c(O)c(-c2ccccc2)nc2ccccc12 [OXYCINCHOPHEN] | > 20 µM | > 20 µM |
| O=C(Nc1cc(Cl)cc(Cl)c1O)c1c(O)c(Cl)cc(Cl)c1Cl [OXYCLOZANIDE] | > 20 µM | > 20 µM |
| COc1ccc2c3c1O[C@H]1C(=O)CC[C@@]4(O)[C@@H](C2)N(C)CC[C@]314 [OXYCODONE] | > 20 µM | > 20 µM |
| Cc1cc(C(C)(C)C)c(O)c(C)c1CC1=NCCN1 [OXYMETAZOLINE] | > 20 µM | > 20 µM |
| COc1cc2[nH]c(C)c(CCN3CCN(c4ccccc4)CC3)c2cc1OC [OXYPERTINE] | > 20 µM | > 20 µM |
| CCCCC1C(=O)N(c2ccccc2)N(c2ccc(O)cc2)C1=O (stereo not given) [OXYPHENBUTAZONE ANHYDROUS] | > 20 µM | > 20 µM |
| CC(=O)Oc1ccc(C2(c3ccc(OC(C)=O)cc3)C(=O)Nc3ccccc32)cc1 [OXYPHENISATIN ACETATE] | > 20 µM | > 20 µM |
| O=C1Nc2ccccc2C1(c1ccc(O)cc1)c1ccc(O)cc1 [OXYPHENISATINE] | > 20 µM | > 20 µM |
| CC[N+](C)(CC)CCOC(=O)C(O)(c1ccccc1)C1CCCCC1 (stereo not given) [OXYPHENONIUM] | > 20 µM | > 20 µM |
| Oc1nc(O)c2cn[nH]c2n1 [OXYPURINOL] | > 20 µM | > 20 µM |
| Oc1cccc2cccnc12 [OXYQUINOLINE] | > 20 µM | > 20 µM |
| CN(C)[C@@H]1C(O)=C(C(N)=O)C(=O)[C@@]2(O)C(O)=C3C(=O)c4c(O)cccc4[C@@](C)(O)[C@H]3[C@H](O)[C@@H]12 [OXYTETRACYCLINE] | > 20 µM | > 20 µM |
| O=C(O)/C=C/c1ccc(Cn2ccnc2)cc1 [OZAGREL] | > 20 µM | > 20 µM |
| CC(C)Oc1ccc(-c2nc(-c3cccc4c3CC[C@@H]4NCCO)no2)cc1C#N [OZANIMOD] | > 20 µM | > 20 µM |
| Cc1ccc(S(N)(=O)=O)cc1 [P-TOLUENESULFONAMIDE] | > 20 µM | > 20 µM |
| COc1cc2c(cc1-c1cc3cc4ccoc4cc3oc1=O)OCO2 [PACHYRRIZINE] | > 20 µM | > 20 µM |
| C1=N/C2=N/c3ccc(OCCN4CCCC4)c(c3)COC/C=C/COCc3cccc(c3)C(=C1)N2 [PACRITINIB] | > 20 µM | > 20 µM |
| COc1ccc(C(C)=O)c(O)c1 [PAEONOL] | > 20 µM | > 20 µM |
| CC(C)n1nc(-c2cccc(Cl)c2Cl)c(N)nc1=N [PALATRIGINE] | > 20 µM | > 20 µM |
| CC(=O)c1c(C)c2cnc(Nc3ccc(N4CCNCC4)cn3)nc2n(C2CCCC2)c1=O [PALBOCICLIB] | > 20 µM | > 20 µM |

| SMILES | IC50 | IC50 (read-out: pIC50 (converted)) |
| --- | --- | --- |
| O=P(O)(NCCCl)NCCCl [PALIFOSFAMIDE] | > 20 µM | > 20 µM |
| CCCCCCCCCCCCCCCC(=O)NCCO [PALMIDROL] | > 20 µM | > 20 µM |
| CCCCCCCCCCCCCCCC(=O)O [PALMITIC ACID] | > 20 µM | > 20 µM |
| COc1cc2c(cc1OC)-c1cc3ccc(OC)c(OC)c3c[n+]1CC2 [PALMITINE] | > 20 µM | > 20 µM |
| CCCCCCCCCCCCCCC1(C(=O)O)CO1 (stereo not given) [PALMOXIRATE] | > 20 µM | > 20 µM |
| COc1ccc(COc2cc3oc(=O)c4cc(C(C)O)ccc4c3cc2OC)cc1 (stereo not given) [PALOMID-529] | > 20 µM | > 20 µM |
| Cc1cc(NC(=O)NCCN2CCC(O)(Cc3ccccc3)CC2)c2ccccc2n1 [PALOSURAN] | > 20 µM | > 20 µM |
| Cn1c(=O)c2[nH]c(Br)nc2n(C)c1=O [PAMABROM] | > 20 µM | > 20 µM |
| C[C@]12CCCN1CC1=NNC(=O)c3cc(F)cc4[nH]c2c1c34 [PAMIPARIB] | > 20 µM | > 20 µM |
| CC(=O)O[C@H]1C[C@@H]2CC[C@@H]3[C@H](CC[C@@]4(C)[C@H]3C[C@H]([N+]3(C)CCCCC3)[C@@H]4OC(C)=O)[C@@]2(C)C[C@@H]1[N+]1(C)CCCCC1 [PANCURONIUM] | > 20 µM | > 20 µM |
| Cc1[nH]c2ccccc2c1CCNCc1ccc(/C=C/C(=O)NO)cc1 [PANOBINOSTAT] | > 20 µM | > 20 µM |
| CC(C)(CO)[C@@H](O)C(=O)NCCC(=O)O [PANTOTHENIC ACID] | > 20 µM | > 20 µM |
| COc1ccc(Cc2nccc3cc(OC)c(OC)cc23)cc1OC [PAPAVERINE] | > 20 µM | > 20 µM |
| COc1ccc(CC(C)N)cc1 (stereo not given) [PARA-METHOXYAMPHETAMINE] | > 20 µM | > 20 µM |
| Oc1ccc(Cl)cc1 [PARACHLOROPHENOL] | > 20 µM | > 20 µM |
| CCC1(C)OC(=O)N(C)C1=O (stereo not given) [PARAMETHADIONE] | > 20 µM | > 20 µM |
| C[N+]1(C)CCC(OC(=O)C(O)(c2ccccc2)c2ccccc2)CC1 [PARAPENZOLATE] | > 20 µM | > 20 µM |
| Cn1c(=O)[nH]c2ncn(C)c2c1=O [PARAXANTHINE] | > 20 µM | > 20 µM |
| CCCCc1ccc2[nH]c(NC(=O)OC)nc2c1 [PARBENDAZOLE] | > 20 µM | > 20 µM |
| CCC(=O)NS(=O)(=O)c1ccc(-c2c(-c3ccccc3)noc2C)cc1 [PARECOXIB] | > 20 µM | > 20 µM |
| C#CCN(C)Cc1ccccc1 [PARGYLINE] | > 20 µM | > 20 µM |
| NC[C@@H]1O[C@H](O[C@H]2[C@@H](O)[C@H](O[C@@H]3[C@@H](O)[C@H](N)C[C@H](N)[C@H]3O[C@H]3O[C@H](CO)[C@@H](O)[C@H](O)[C@H]3N)O[C@@H]2CO)[C@H](N)[C@@H](O)[C@@H]1O [PAROMOMYCIN] | > 20 µM | > 20 µM |
| CCC(=O)c1ccc(O)cc1 [PAROXYPROPIONE] | > 20 µM | > 20 µM |
| Cc1cnc(N2CC3(CCOCC3)C2)c(C(=O)Nc2ccc(C(=O)N3CCc4cc(C(=O)Nc5c(C)cccc5F)sc4-c4ccccc43)cc2)c1 [PC-786] | > 20 µM | > 20 µM |
| CCn1cc(C(=O)O)c(=O)c2cc(F)c(N3CCN(C)CC3)cc21 [PEFLOXACIN] | > 20 µM | > 20 µM |

| SMILES | IC50 | IC50 (read-out: pIC50 (converted)) |
| --- | --- | --- |
| CCOc1cc2ncc(C#N)c(Nc3ccc(F)c(Cl)c3)c2cc1NC(=O)/C=C/CN(C)C [PELITINIB] | > 20 µM | > 20 µM |
| Cc1nc(=O)c(C#N)c(NCc2cccnc2)[nH]1 [PELRINONE] | > 20 µM | > 20 µM |
| CCC1(CC(=O)O)OCC(Cc2ccccc2)c2c1[nH]c1ccccc21 (stereo not given) [PEMEDOLAC] | > 20 µM | > 20 µM |
| CN(C)CCCOC1CC(C)(C)N(C)C(C)(C)C1 [PEMERID] | > 20 µM | > 20 µM |
| Nc1nc2[nH]cc(CCc3ccc(C(=O)N[C@@H](CCC(=O)O)C(=O)O)cc3)c2c(=O)[nH]1 [PEMETREXED] | > 20 µM | > 20 µM |
| Cc1cccn2c(=O)c(-c3nnn[nH]3)cnc12 [PEMIROLAST] | > 20 µM | > 20 µM |
| NC1=NC(=O)C(c2ccccc2)O1 (stereo not given) [PEMOLINE] | > 20 µM | > 20 µM |
| CN1C(C)(C)CCCC1(C)C [PEMPIDINE] | > 20 µM | > 20 µM |
| Nc1nc(O)c2ncn(CCC(CO)CO)c2n1 [PENCICLOVIR] | > 20 µM | > 20 µM |
| CC(C)(S)[C@@H](N)C(=O)O [PENICILLAMINE] | > 20 µM | > 20 µM |
| CC1(C)S[C@@H]2[C@H](NC(=O)Cc3ccccc3)C(=O)N2[C@H]1C(=O)O [PENICILLIN G] | > 20 µM | > 20 µM |
| CSCC[C@H](NC(=O)[C@H](Cc1c[nH]c2ccccc12)NC(=O)CCNC(=O)OC(C)(C)C)C(=O)N[C@@H](CC(=O)O)C(=O)N[C@@H](Cc1ccccc1)C(N)=O [PENTAGASTRIN] | > 20 µM | > 20 µM |
| C[N+](C)(C)CCCCC[N+](C)(C)C [PENTAMETHONIUM] | > 20 µM | > 20 µM |
| N=C(N)c1ccc(OCCCCCOc2ccc(C(=N)N)cc2)cc1 [PENTAMIDINE] | > 20 µM | > 20 µM |
| CCC(C)C(C(=O)OC1CCN(C)CC1)c1ccccc1 (stereo not given) [PENTAPIPERIDE] | > 20 µM | > 20 µM |
| O=C(O)CN(CCN(CC(=O)O)CC(=O)O)CCN(CC(=O)O)CC(=O)O [PENTETIC ACID] | > 20 µM | > 20 µM |
| CC[N+](C)(CC)CCOC(=O)C(O)(c1cccs1)C1CCCC1 (stereo not given) [PENTHIENATE] | > 20 µM | > 20 µM |
| CCCC(C)C1(CC)C(=O)NC(=O)NC1=O (stereo not given) [PENTOBARBITAL] | > 20 µM | > 20 µM |
| CCOC(=O)[C@H](C)C[C@@H](C)C(=O)N1c2ccccc2C[C@H]1C(=O)O [PENTOPRIL] | > 20 µM | > 20 µM |
| OC[C@H]1O[C@@H](n2cnc3c2N=CNC[C@H]3O)C[C@@H]1O [PENTOSTATIN] | > 20 µM | > 20 µM |
| CC(=O)CCCCn1c(=O)c2c(ncn2C)n(C)c1=O [PENTOXIFYLLINE] | > 20 µM | > 20 µM |
| C1CCc2nnnn2CC1 [PENTYLENETETRAZOL] | > 20 µM | > 20 µM |
| CC(C)CC(=O)N[C@H](C(=O)N[C@H](C(=O)N[C@@H](CC(C)C)[C@@H](O)CC(=O)N[C@@H](C)C(=O)N[C@@H](CC(C)C)[C@@H](O)CC(=O)O)C(C)C)C(C)C [PEPSTATIN] | > 20 µM | > 20 µM |
| CCCN1C[C@H](CSC)C[C@@H]2c3cccc4[nH]cc(c34)C[C@H]21 [PERGOLIDE MESYLATE] | > 20 µM | > 20 µM |
| C1CCC(C(CC2CCCCN2)C2CCCCC2)CC1 (stereo not given) [PERHEXILINE MALEATE] | > 20 µM | > 20 µM |
